The results in this text go back to publication PMC9653733, “Characterization of a Potent, Selective, and Safe Inhibitor, Ac15(Az8)2, in Reversing Multidrug Resistance Mediated by Breast Cancer Resistance Protein (BCRP/ABCG2)” (International Journal of Molecular Sciences, 2022).

The subject of one data set is S1M180 xenograft. The text has this: (§1) (A) S1 xenograft. (B) S1M180 xenograft. There were 3 treatment groups in S1 and S1M180 xenograft model. Treatments were given as indicated by an arrow (↑). % of tumor volume reduction was compared among different treatment groups on days 55 and 71. a, b, and c = mean tumor volume of solvent control, topotecan alone, and combination treatment groups on day 55, respectively. d and e = mean tumor volume of topotecan alone and combination treatment groups on day 71. (C) Tumor weight of S1M180-bearing mice on termination day. (D) % change of tumor volume and tumor doubling time of S1M180 xenograft were determined on days 55 and 71. […] Number of animal death was monitored during the efficacy study. (E) Body weight of S1M180-bearing mice. (F) To measure plasma and intratumor level of topotecan, S1M180-bearing mice were administered with 45 mg/kg (I.P.) of Ac15(Az8)2 one hour prior to 6 mg/kg (I.P.) of topotecan administration. Five hours after topotecan administration, the mice were sacrificed. Plasma and tumor were collected for analyzing topotecan level using UPLC–MS/MS. Student’s unpaired two-tailed t-test was performed between combination group and topotecan alone group or solvent control group as indicated (* p < 0.05, ** p < 0.01, *** p < 0.001).
Ten million of S1M180 cells were injected subcutaneously into Balb/c nu nu mice (Beijing Vital River Laboratory Animal Technology Co., Ltd., Beijing, China). Mice with solid tumors formed were sacrificed. The tumor was removed and cut into 1 mm^3 and xenografted subcutaneously onto another Balb/c nu nu mouse for passage or efficacy study. Treatment of nude mice started when the xenograft reached 100–150 mm^3. The mice were randomized into 3 groups (n = 7 mice per group). Group (1) was treated with Ac15(Az8)2 solvent (I.P.) and topotecan solvent (I.P.), group (2) was treated with Ac15(Az8)2 solvent (I.P.) and topotecan (2 mg/kg, I.P.), group (3) was treated with Ac15(Az8)2 (45 mg/kg, I.P.) and topotecan (2 mg/kg, I.P.). The formulation used was the same as that of the pharmacokinetic study. S1M180-bearing nude mice were treated for 4 rounds. In each round, they were treated once every two days 6 times, allowed to rest for 7 days, and treated again. […] The body weights of mice were monitored throughout the experiment. Tumor dimensions were measured by an electronic caliper, and the tumor volume was calculated as reported previously.

For another data set, the system named is S1 xenograft. Kind of data set: In vivo efficacy in parental S1 xenograft. The arrangement: species or system Balb/c nu nu mice. To be noted: four times (700% without treatment).
Description: as §1

The target in another data set is T1, BCRP (S1M180 cells) (Homo sapiens, UniProt Q9UNQ0, R482G).
T1 construct: endogenous in cells; host or cells: S1M180 (human colon carcinoma, mitoxantrone-selected)
T1 sequence (Q9UNQ0 1-655 R482G): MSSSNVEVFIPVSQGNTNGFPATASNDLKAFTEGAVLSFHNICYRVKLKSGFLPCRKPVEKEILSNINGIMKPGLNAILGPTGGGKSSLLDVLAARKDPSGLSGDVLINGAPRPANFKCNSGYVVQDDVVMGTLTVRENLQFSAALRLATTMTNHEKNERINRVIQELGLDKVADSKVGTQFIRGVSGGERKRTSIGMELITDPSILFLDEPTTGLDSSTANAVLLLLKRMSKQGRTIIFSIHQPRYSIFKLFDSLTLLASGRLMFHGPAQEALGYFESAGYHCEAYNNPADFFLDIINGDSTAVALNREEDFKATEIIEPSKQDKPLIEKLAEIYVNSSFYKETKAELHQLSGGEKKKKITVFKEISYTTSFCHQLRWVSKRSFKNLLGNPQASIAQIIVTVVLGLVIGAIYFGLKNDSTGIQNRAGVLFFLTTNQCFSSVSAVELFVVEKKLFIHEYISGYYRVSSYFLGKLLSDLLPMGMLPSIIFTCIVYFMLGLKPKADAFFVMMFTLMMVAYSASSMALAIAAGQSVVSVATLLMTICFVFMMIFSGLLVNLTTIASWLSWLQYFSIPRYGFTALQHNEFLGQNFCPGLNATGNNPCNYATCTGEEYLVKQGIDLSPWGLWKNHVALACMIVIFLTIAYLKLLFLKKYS
Kind of data set: Drug accumulation assay in S1M180. It counts as cell-based. How it is done:
(§2) Figure 2 Effect of Ac15(Az8)2 on intracellular accumulation of BCRP-substrates in S1 and S1M180 cells. Cells were pre-treated with 0.1% DMSO, 100 nM, or 1000 nM Ac15(Az8)2 and then incubated with BCRP substrates. (A) Topotecan accumulation. (B) DOX accumulation. The intracellular level of drug after treatment was normalized to that of S1 cells after incubating with 0.1% DMSO. Student unpaired two-tailed t-test was conducted as indicated (** p < 0.01, *** p < 0.001). (C) To measure DOX efflux, S1M180 cells were pre-incubated with medium containing 20 μM DOX for 1 h at 37 °C. Cells were then washed and further incubated with or without 1 µM of Ac15(Az8)2. At 0, 5, 10, 30, 60, 120, and 180 min, the cells were harvested to measure the intracellular DOX level. (D) To determine intracellular Ac15(Az8)2 concentration, 1 × 10^7 cells were incubated with 1 µM of Ac15(Az8)2 at 37 °C for 2 h. Cells were then washed with ice-cold PBS. To the cell pellet, acetonitrile was added to lyse the cells, and the supernatant was saved for Ac15(Az8)2 determination using UPLC–MS/MS.
Briefly, 1 × 10^6 cells of S1 and S1M180 cells were pre-incubated with 100 nM or 1000 nM Ac15(Az8)2 for 2 h and followed by 50 µM of topotecan or 20 µM of DOX for 1-h incubation. DMSO at 0.1% was used as a negative control. After incubation, the cells were spun down and washed with cold PBS, pH7.4 for 2 times and lysed with 100 μL of lysis buffer (0.75 M HCl, 0.2% Triton-X100 in isopropanol) with vigorous vortex. The lysate was further incubated at 37 °C for 20 min. After incubation, the lysate was spun down, and 100 μL of supernatant was saved and seeded into a black 96-well microtiter plate. The fluorescence level of DOX was determined by a fluorescence microplate reader (BMG Technologies) using excitation and an emission wavelength pair of 460 nm and 610 nm.

Another data set deals with T2, BCRP (Homo sapiens, UniProt Q9UNQ0, R482G).
T2 construct: endogenous in cells; host or cells: S1M180 (human colon carcinoma, mitoxantrone-selected)
T2 sequence (Q9UNQ0 1-655 R482G): T1 sequence (Q9UNQ0 1-655 R482G)
As to the kind of experiment: Intracellular Ac15(Az8)2 level in S1 and S1M180 (BCRP substrate test, UPLC-MS/MS). It counts as cell-based. As to the method: as §2
BCRP is an efflux transporter with broad substrate selectivity. In order to study whether Ac15(Az8)2 is itself a substrate of BCRP, its intracellular level was measured after treating the S1 or S1M180 cells for 2 h.

Setting [1] is: 45 mg/kg Ac15(Az8)2 + 2 mg/kg topotecan.
The mark [2] stands for this setting: 100 nM or 1000 nM Ac15(Az8)2, 2 h pre-incubation.

Molecules are shown by their SMILES.

For the compound `COC(=O)c1cccc(COc2c(-c3ccc(OCCOCCn4cc(CN(Cc5ccccc5)Cc5cn(CCOCCOc6ccc(-c7oc8ccccc8c(=O)c7OCc7cccc(C(=O)OC)c7)cc6)nn5)nn4)cc3)oc3ccccc3c2=O)c1` [Ac15(Az8)2], in the data set on S1M180 xenograft (setting [1]), the “Lengthening of tumor doubling time by combination treatment vs solvent group” value came out at 4.6 days and the “Lengthening of tumor doubling time by combination treatment vs topotecan alone” value amounted to 1.8 days. The “Reduction of tumor weight by combination treatment vs solvent group” value with S1M180 xenograft (termination day, p < 0.001) was found to be 1.9 fold. In the data set with S1M180 xenograft (termination day, p < 0.01), the “Reduction of tumor weight by combination treatment vs topotecan alone” value was 1.6 fold. Further, the “Xenograft volume on the 11th day” value in the data set on S1 xenograft (topotecan 2 mg/kg + 45 mg/kg Ac15(Az8)2 I.P. every other day) turned out to be 200%. Also, on BCRP (S1M180 cells) (setting [2]), the “Effect on DOX accumulation in S1M180” value is recorded as “increase the accumulation” and the “Effect on topotecan accumulation in S1M180” value is reported as “increase the accumulation”. Further, at BCRP (1 µM, 2 h, 37 °C), the “Intracellular level of Ac15(Az8)2 in S1M180 higher than in S1” value is on record as “about 20%”. For the same compound, the “Transport substrate of BCRP” value at BCRP (from intracellular levels in S1 vs S1M180) is “not a transport substrate of BCRP”.
For `CC[C@@]1(O)C(=O)OCc2c1cc1n(c2=O)Cc2cc3c(CN(C)C)c(O)ccc3nc2-1` [topotecan], in the data set with S1 xenograft (topotecan alone 2 mg/kg I.P. every other day), the “Xenograft volume on the 11th day” value was determined as 200%. Also, the “Topotecan accumulation in S1M180, fold less than parental S1” value at BCRP (S1M180 cells) (50 µM topotecan, 1 h, p < 0.01) is given as “about 2.1 fold”.
